Assay [1] has as its system S. epidermidis agr P3 promoter. The following applies: peptide 200 nM; for Specific CAT activity: S. epidermidis, without peptide 12.5.
Assay [2] concerns S. aureus Newman. Put plainly: Exoprotein and surface-associated protein production, Tricine SDS-PAGE. To be noted: 1 μM, 16 h culture.
Procedure: FIG. 6: Influence of the S. epidermidis pheromone and its derivatives on the production of exoproteins and surface-associated proteins in S. aureus Newman. (A) Exoproteins: basic medium was inoculated with 1/100 vol. of a preculture of S. aureus Newman. At the same time, the pheromone or one of its derivatives was added at a concentration of 1 μM. The peptides were dissolved in DMSO (dimethylsulfoxide); a control received only DMSO. Culture filtrates (20 μl) of the cultures harvested after 16 h of growth were applied to Tricine SDS-PAGE and stained with Coomassie Blue. (B) Surface-associated proteins: pellets of the centrifuged 16 h cultures were dissolved in SDS-PAGE loading buffer containing 1% SDS, boiled at 1000C for 5 min, and applied to Tricine SDS-PAGE after removal of insoluble material by centrifugation. […] (SEQ ID NO: 17); (6) control (with DMSO); (7) molecular weight standards.
The effect of the synthetic cyclic peptides on the production pattern of surface-associated proteins and exoproteins was investigated (for Exoprotein analysis of S. epidermidis see Experimental procedures).
The synthetic cyclic peptides were added at a concentration of 1 μM to a culture that was inoculated by 1/100 vol. of a preculture; the cultures were incubated for 16 h. […]

Ends that are not written are not given here.

On to “SVCASYF (not fully specified (bridges); also: thioester linkage to Cys3; listed as Staphylococcus epidermidis)”, for which the “Specific CAT activity” value in assay [1] came to 8.9 U/mg protein.
With “SVc[CASYF]: S. epidermidis pheromone lacking the original aspartate residue at the N-terminus (SVXASYF; thiolactone cyclisation; VARIANT (3) C-terminal cyclyzed through thioester linkage to cystine residue 3; listed as Staphylococcus epidermidis)”, in assay [2] (cell pellets), the surface-associated proteins synthesized result is recorded as “synthesized in higher amounts”. In addition, the “reduction of exoprotein production” value in assay [2] (culture filtrate) was “most pronounced”. Moreover, in assay [1], the “effect on CAT activity” value is reported as “very small stimulatory effect” and the “Specific CAT activity” value was 16.1 U/mg protein.

These data come from US6660835B1, “Lead substances and their use as therapeutics” (priority 1998, dated 2003).
